From PMC8026785, “The pharmacokinetics of [^18F]UCB-H revisited in the healthy non-human primate brain” (EJNMMI Research, 2021)
Several values for one entry are separate records, joined by “and”; a condition that tells them apart may be missing. Equal values may be shown once.

Target: T1, SV2A (Macaca fascicularis, UniProt Q4R4X3)
T1 construct: The current study evaluates [^18F]UCB-H pharmacokinetics in healthy NHPs; from tissue; host or cells: brain of living healthy cynomolgus monkeys (in vivo PET)
Test: Brain PET kinetic modelling (1TCM, 2TCM, 2TCM-c, Logan), test-retest
Assay type: in vivo, cynomolgus monkeys (Macaca fascicularis)
Experimental: All four non-human primates (NHP) underwent a 2-h (2 h) test and retest PET scan; two NHP underwent an additional 4-h (4 h) retest PET scan. Three NHP underwent one 4-h (4 h) displacement PET scan. Arterial blood sampling was performed during test and retest scans with PET imaging spaced by at least 3 weeks between each scan. To this end, the femoral artery opposite to the saphenous vein used for radioligand injection was cannulated. For the 2-h (2 h) scans, we collected in total 28 blood samples of 1 mL: 16 samples during the first 5 min followed by […] every 5 min and […] every 10 min. For the 4 h scans, we collected an additional 6 samples every 20 min during the last two hours (34 samples in total). Larger samples (2 – 3 mL) were collected at 5, 15, 30, 60, 90, 120 min (2 h) and at 180, 240 min (4 h) for metabolite analysis. Displacement of [^18F]UCB-H was done by intravenous (IV) administration 90 min after [^18F]UCB-H injection of a bolus of 30 mg/kg LEV, or of 80 µg/kg (≈250 nmol/kg) or 5 mg/kg (≈15 µmol/kg) of cold [^19F]-UCB-H. Full experimental design of all NHP is outlined in Additional file 1: Table 1.
PET imaging was performed on the microPET FOCUS220 (Siemens) under standard anesthesia and monitoring procedures. Data acquisition started with the IV bolus injection of [^18F]UCB-H (32.9 ± 1.0 MBq/kg, 0.35 ± 0.07 µg/kg). Dynamic PET images were reconstructed using standard OSEM-2D algorithms while correcting for radioactive decay, scatter, attenuation and detectors inhomogeneity, which were measured prior to PET scanning using respectively ^57Co and ^68Ge external sources.
PET image analysis was performed using PMOD software version 3.8 (PMOD Technologies Ltd., Zurich, Suisse). After individual co-registration of PET-MR images, a cynomolgus atlas published by Ballanger and coworkers was normalized to PET images to extract time activity curves in different brain regions. Volumes of interest (VOI) were cerebral white matter (16.7 cm^3), striatum (0.24 cm^3), thalamus (0.89 cm^3), cerebellum (3.83 cm^3), frontal—(2.50 cm^3), parietal—(5.35 cm^3), and temporal (8.22 cm^3) cortex, and whole brain (72.2 cm^3) as a composite region of all regions in the atlas. [^18F]UCB-H pharmacokinetics were evaluated by analyzing the time activity curves of the test- and retest scans using 1- and 2-tissue compartment models (unconstrained and constrained with global K1/k2 coupled fit across all regions, further referred to as 2TCM and 2TCM-c), and Logan graphical analysis with a fixed t* at 60 min [33] using the arterial plasma input function corrected for radio-metabolites to derive the volume of distribution in each region. Percentage standard error (%SE) was estimated from the theoretical parameter covariance matrix. Only reliable estimates (%SE less than 25%) were included in the current analyses. For the three drug studies, percent displacement of the total activity in the whole brain was estimated relative to an average baseline constructed from the two 4 h baseline studies. Briefly, Standardized Uptake Value (SUV) time activity curves (TACs) were calculated for the two baseline and the three displacement studies. Then, each curve was normalized to the SUV at t = 90 min, corresponding to the timeframe immediately before the administration of the drugs in the displacement studies. Baseline curves were averaged and the percent displacement of total activity was calculated as (baseline-displacement)/baseline at a given time post drug administration (see “Results”).
Statistical analysis was performed using R software (version 3.3.1.). Plasma, intact parent fraction and time activity curves were statistically compared between subjects using a one-factor variance analysis. Absolute Test–Retest variability (aTRV) of PET quantification parameters was calculated as ABS(test—retest) / AVERAGE(test, retest). […]

[1] = Parietal Cortex, Retest, individual NHP
[2] = Parietal Cortex, Test, individual NHP
[3] = Striatum, Retest, individual NHP

T1 sequence (Q4R4X3 whole entry): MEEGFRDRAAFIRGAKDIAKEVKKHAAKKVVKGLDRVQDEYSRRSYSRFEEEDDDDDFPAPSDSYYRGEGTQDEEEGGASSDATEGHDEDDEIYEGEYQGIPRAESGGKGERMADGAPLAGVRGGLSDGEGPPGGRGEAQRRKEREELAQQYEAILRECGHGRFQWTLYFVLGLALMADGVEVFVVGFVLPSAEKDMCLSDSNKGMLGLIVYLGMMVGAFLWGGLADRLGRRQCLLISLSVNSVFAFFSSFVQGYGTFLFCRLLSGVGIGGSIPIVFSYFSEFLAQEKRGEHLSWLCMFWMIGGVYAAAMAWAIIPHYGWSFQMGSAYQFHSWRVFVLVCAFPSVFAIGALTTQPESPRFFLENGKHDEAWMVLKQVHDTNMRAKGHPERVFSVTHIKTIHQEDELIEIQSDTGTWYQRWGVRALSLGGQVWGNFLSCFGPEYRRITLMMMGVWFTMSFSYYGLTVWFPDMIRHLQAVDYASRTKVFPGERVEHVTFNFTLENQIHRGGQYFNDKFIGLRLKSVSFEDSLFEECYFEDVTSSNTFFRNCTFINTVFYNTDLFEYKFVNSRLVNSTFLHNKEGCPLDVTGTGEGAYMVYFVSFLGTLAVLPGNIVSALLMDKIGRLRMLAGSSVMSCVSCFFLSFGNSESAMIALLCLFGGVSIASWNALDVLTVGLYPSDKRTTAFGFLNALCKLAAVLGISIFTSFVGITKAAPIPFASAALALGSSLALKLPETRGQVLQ

SMILES: O=C1C[C@H](c2cc(F)c(F)c(F)c2)CN1Cc1ccncc1[18F] [[^18F]UCB-H]
- VT (2TCM) (Frontal cortex, Retest, mean): 13.1 mL/cm^3
- VT (2TCM-c) (Frontal cortex, Retest, mean): 14.7 mL/cm^3
- VT (Logan (t* = 60)) (Frontal cortex, Retest, mean): 14.8 mL/cm^3
- k3/k4 (BPND) (2TCM-c) (Frontal cortex, Retest, mean): 1.32
- VT (1TCM) (Frontal cortex, Test, mean): 13.8 mL/cm^3
- VT (2TCM) (Frontal cortex, Test, mean): 16.3 mL/cm^3
- VT (2TCM-c) (Frontal cortex, Test, mean): 14.8 mL/cm^3
- VT (Logan (t* = 60)) (Frontal cortex, Test, mean): 15.0 mL/cm^3
- k3/k4 (BPND) (2TCM-c) (Frontal cortex, Test, mean): 1.25
- ICC of VT, overall (Logan): ~ 0.6
- aTRV of VT, overall (Logan): ~ 11% and ~ 12%
- aTRV of VT (MA1, data not shown): ~ 11%
- K1 (2TCM) [1]: 0.42 ml/cm^3 /min and 0.32 ml/cm^3 /min and 0.38 ml/cm^3 /min and 0.33 ml/cm^3 /min
- K1 (2TCM-c) [1]: 0.44 ml/cm^3 /min and 0.33 ml/cm^3 /min and 0.38 ml/cm^3 /min and 0.34 ml/cm^3 /min
- K1/k2 (2TCM) [1]: 13.02 ml/cm^3 and 14.99 ml/cm^3
- K1/k2 (2TCM-c) [1]: 4.64 ml/cm^3 and 9.07 ml/cm^3 and 10.70 ml/cm^3 and 7.25 ml/cm^3
- VT (1TCM) [1]: 13.99 ml/cm^3 and 16.57 ml/cm^3 and 15.57 ml/cm^3 and 13.26 ml/cm^3
- VT (2TCM) [1]: 13.98 ml/cm^3 and 13.26 ml/cm^3
- VT (2TCM-c) [1]: 14.02 ml/cm^3 and 18.28 ml/cm^3 and 18.66 ml/cm^3 and 13.26 ml/cm^3
- VT (Logan) [1]: 13.75 ml/cm3 and 19.72 ml/cm3 and 15.91 ml/cm3 and 13.60 ml/cm3
- k3/k4 (2TCM-c) [1]: 2.02 and 1.04 and 0.78 and 0.83
- K1 (2TCM) [2]: 0.22 ml/cm^3 /min and 0.40 ml/cm^3 /min and 0.41 ml/cm^3 /min and 0.18 ml/cm^3 /min
- K1 (2TCM-c) [2]: 0.23 ml/cm^3 /min and 0.41 ml/cm^3 /min and 0.42 ml/cm^3 /min and 0.18 ml/cm^3 /min
- K1/k2 (2TCM) [2]: 7.68 ml/cm^3 and 12.37 ml/cm^3 and 12.79 ml/cm^3 and 13.88 ml/cm^3
- K1/k2 (2TCM-c) [2]: 4.35 ml/cm^3 and 8.22 ml/cm^3 and 10.99 ml/cm^3 and 7.86 ml/cm^3
- VT (1TCM) [2]: 10.65 ml/cm^3 and 17.46 ml/cm^3 and 14.10 ml/cm^3 and 15.09 ml/cm^3
- VT (2TCM) [2]: 12.22 ml/cm^3 and 18.71 ml/cm^3
- VT (2TCM-c) [2]: 11.12 ml/cm^3 and 17.78 ml/cm^3 and 15.03 ml/cm^3 and 17.47 ml/cm^3
- VT (Logan) [2]: 11.83 ml/cm3 and 18.19 ml/cm3 and 15.28 ml/cm3 and 16.49 ml/cm3
- k3/k4 (2TCM) [2]: 0.59
- k3/k4 (2TCM-c) [2]: 1.56 and 1.38 and 0.37 and 1.00
- ICC of 2TCM-c VT (Parietal cortex): 0.38
- ICC of Logan (t* = 60) VT (Parietal cortex): 0.75
- aTRV of 2TCM-c VT (Parietal cortex): 19%
- aTRV of Logan (t* = 60) VT (Parietal cortex): 12%
- VT (1TCM) (Parietal cortex, Retest, mean): 14.8 mL/cm^3
- VT (2TCM) (Parietal cortex, Retest, mean): 13.6 mL/cm^3
- VT (2TCM-c) (Parietal cortex, Retest, mean): 16.1 mL/cm^3
- VT (Logan (t* = 60)) (Parietal cortex, Retest, mean): 15.7 mL/cm^3
- k3/k4 (BPND) (2TCM-c) (Parietal cortex, Retest, mean): 1.17
- VT (1TCM) (Parietal cortex, Test, mean): 14.3 mL/cm^3
- VT (2TCM) (Parietal cortex, Test, mean): 15.5 mL/cm^3
- VT (2TCM-c) (Parietal cortex, Test, mean): 15.4 mL/cm^3
- VT (Logan (t* = 60)) (Parietal cortex, Test, mean): 15.4 mL/cm^3
- k3/k4 (BPND) (2TCM-c) (Parietal cortex, Test, mean): 1.08
- ICC of Logan (t* = 60) VT (Striatum): 0.67
- aTRV of 2TCM-c VT (Striatum): 12%
- aTRV of Logan (t* = 60) VT (Striatum): 11%
- K1 (2TCM) [3]: 0.41 ml/cm^3 /min and 0.54 ml/cm^3 /min and 0.44 ml/cm^3 /min and 0.46 ml/cm^3 /min
- K1 (2TCM-c) [3]: 0.42 ml/cm^3 /min and 0.58 ml/cm^3 /min and 0.46 ml/cm^3 /min and 0.47 ml/cm^3 /min
- K1/k2 (2TCM) [3]: 11.34 ml/cm^3 and 15.36 ml/cm^3
- K1/k2 (2TCM-c) [3]: 7.25 ml/cm^3 and 4.64 ml/cm^3 and 9.07 ml/cm^3 and 10.70 ml/cm^3
- VT (1TCM) [3]: 13.04 ml/cm^3 and 14.96 ml/cm^3 and 15.52 ml/cm^3 and 15.75 ml/cm^3
- VT (2TCM) [3]: 13.09 ml/cm^3 and 15.01 ml/cm^3
- VT (2TCM-c) [3]: 13.08 ml/cm^3 and 15.06 ml/cm^3 and 17.64 ml/cm^3 and 15.26 ml/cm^3
- VT (Logan) [3]: 13.39 ml/cm3 and 14.93 ml/cm3 and 18.31 ml/cm3 and 16.14 ml/cm3
- k3/k4 (2TCM-c) [3]: 0.80 and 2.25 and 0.97 and 0.45
- VT (1TCM) (Striatum, Retest, mean): 14.8 mL/cm^3
- VT (2TCM) (Striatum, Retest, mean): 14.1 mL/cm^3
- VT (2TCM-c) (Striatum, Retest, mean): 15.3 mL/cm^3
